The source of these data is patent publication US20070299084A1, “Indole Derivatives Useful for Treating Resistance to Antitumor Agents” (NIKEM RESE S.R.L., priority 2004, published 2007).

Experiment [1] deals with HepG2 cells (human hepatic carcinoma). As to the kind of experiment: Antiproliferative activity, 48 h treatment, ATPlite luminescence assay, HepG2. The experiment is classed as cell-based. Particulars: Homo sapiens, HepG2, read-out: Antiproliferative activity (IC50 ± S.D., μM) HepG2. The method, then:
HepG2: maintained in EMEM medium+10% FCS.
24 hours after seeding, an aliquot (10 μl) of the drug at the various concentrations is added (for each concentration there are 3 replicates). After 48 hours of treatment the antiproliferative effect is evaluated with a luminescence assay (Perkin Elmer Life Sciences ATPlite):
50 μl of a lysis solution are added to each well followed by an equal volume of a solution containing luciferase and D-luciferin. The ATP present in all the metabolically active cells brings about the transformation reaction of D-luciferin, catalysed by luciferase, to produce a luminescent signal as described in the following scheme: ATP+D-luciferin+O2→Oxyluciferin+AMP+PPi+CO2+Light
The luminescence produced (expressed in counts per second, CPS) is measured by means of a microplate scintillation analyzer (Perkin Elmer Life Sciences Top Count).
Percentage inhibition of luminescence in the treated cells compared to the control is calculated; concentration-response curves are then analysed using Grafit v.5.0.
(Cellular ATP, detected with luciferase, serves as a proxy for viable cell number.)

Experiment [2] deals with HT29 cells (human colon carcinoma). As to the kind of experiment: Antiproliferative activity, 72 h treatment, SRB assay, HT29. It counts as cell-based.
Protocol: HT29 and HT29/Mit (line obtained by prolonged exposure to mitoxantrone, and characterised by overerexpression of BCRP, which confers cross resistance to topotecan, irinotecan and to its metabolite SN38): maintained in McCoy 5A medium+10% FCS.
The cells (HT29 and HT29/Mit:. 40,000 cells/ml, LoVo, LoVo/Dx and HCT116: 50,000 cells/ml) are seeded in 100 μl of the respective culture media in 96-well plates. 24 hours after seeding, an aliquot (10 μl) of drug at the various concentrations is added. In the samples in which the effect of the combination of two compounds is to be tested the inhibitor is added immediately before the cytotoxic. For each dose or combination of doses/drugs the effect of the treatment is determined in 4-8 replicates.
After 72 hours of treatment the antiproliferative effect is evaluated using the sulforhodamine B (SRB) assay: the cells are fixed by adding 25 μl of 50% TCA to each well and left for 1 hour at 4° C. After washing them with water and allowing them to dry, 100 μl of 0.4% SRB in 1% acetic acid are added and left for 30 minutes at room temperature. After 4 washes in 1% acetic acid, they are left to dry, then the dye fixed by the proteins is dissolved under basic conditions with 100 μl 10 mM cold Tris and the solution is read using a spectrophotometer at 550 nm.
Percentage cell growth is calculated as the optical density of treated samples compared to the optical density of controls (untreated cells).
Experiment [3] deals with HT29 line. Nature of the experiment: Apoptosis experiment (Tunel). The experiment is classed as cell-based, human. The method, then:
1.5×10^6 cells/sample are seeded. After 24 hours the cells are treated with the compounds for 48 or 72 hours. At the end of the treatment, the cells are detached with Trypsin/EDTA, washed in PBS (phosphate buffered solution) and incubated for 45 minutes at room temperature in 1 ml of 4% paraformaldehyde.
The cells are then washed with PBS and resuspended in 100 μl of permeabilizing solution (0.1% triton in 0.1% sodium citrate) for 2 minutes in ice. After a further wash, the cells are resuspended in 50 μl of Tunel reaction mix (Boehringer Mannheim) and left at 37° C. for 1 hour in the dark. After washing in PBS, the cells are resuspended in PBS and analysed by cytofluorimeter or examined by fluorescence microscope.

Structures are written as SMILES.

Broadly, the IC50 is the concentration that gives 50% inhibition. Regarding `CCOc1cc(C(=O)NC2CC(C)(C)NC(C)(C)C2)ccc1-c1cc2cc(Cl)c(Cl)cc2[nH]1` [Example 2], the IC50 in experiment [1] was 2 ± 0.1 µM; in experiment [2] (Homo sapiens, HT-29, 72 h, read-out: Antiproliferative activity (IC50 ± S.D., μM) HT-29) it was 1 ± 0.1 µM. Also, the “Effect on antiproliferative activity of topotecan” value in experiment [2] (HT29 model, subtoxic and subactive concentrations (<1 μM) of compound of example 2) is “enhanced antiproliferative activity of topotecan”. Also, in experiment [2] (all lines: 72 hours (HT29, HT29/Mit, LoVo, LoVo/DX, HCT116) or 48 hours (HepG2, SHSY-5Y, SK-N-BE(2), A2780)), the “Antiproliferative activity in the human tumour cell lines used (summary of Table 1)” value was “high antiproliferative potency”. For the same compound, in experiment [3], the Induction of apoptosis result is given as “high level of apoptosis”.
